Measured values: publication PMC9468151, “Identification of a binding site on soluble RANKL that can be targeted to inhibit soluble RANK-RANKL interactions and treat osteoporosis” (Nature Communications, 2022)
Where “and” joins values, the source holds several entries; their conditions need not be identical. Equal values may be shown once.

Columns and labels:
[1] = Pharmacokinetic studies in rat; format: in vivo; parameters: unit not given here
[2] = molecular target: T1, sRANKL trimerization (Rattus norvegicus, UniProt Q9ESE2, D175N); experiment: Cross-link assay of sRANKL trimerization; format: biochemical
T1 construct: (1) sRANKL (rat 159-318 aa); His6-sumo (N, cleaved yes); made in house; host or cells: Escherichia coli BL21 (DE3)
Excerpt: the effect of S3-15 on RANKL self-trimerization. […]
control), S3 and S3-15 -treated sRANKL samples. The sRANKL dimer and monomer […]
trimerization process in vitro. […]
line 18 and, Figure S4L of the manuscript. […]
convinced that our sRANKL selective inhibitors does attenuate RANKL-RANK interaction without affect RANKL trimerization.”.
3. Does S3-15 affect the binding of sRANKL and mRANKL to OPG, an important
Response: To answer this question, we have performed a number of experiments. The pull-down assay was conducted to explore the effects of S3-15 on sRANKL and OPG […]
sRANKL to OPG at high concentration (10 and 1 μM) but not low concentration (0.3 μM). Three more experiments on mRANKLs have conducted to study if S3-15 affects the binding of mRANKL to OPG. Two of the experiments are on human and mouse mRANKL expressed in 293T cell, the other is on the mRANKL expressed in MC3T3-E1 osteogenic precursor cells. […]
affect the binding of mRANKL to OPG at concentration of 1 μM. […]
been documented in the page 11 at line 21 and Figure S4M-S4P of the manuscript.
Here is the paragraph we have added to the manuscript: […]

[3] = molecular target: T2, sRANKL (Rattus norvegicus, UniProt Q9ESE2, D175N); experiment: Isothermal titration calorimetry (ITC) with sRANKL; format: binding; conditions: for Kd: 25 °C, PBS 0.8% DMSO
T2 construct: (1) sRANKL (rat 159-318 aa); His6-sumo (N, cleaved yes); made in house; host or cells: Escherichia coli BL21 (DE3)
T2 sequence (Q9ESE2 159-318 D175N): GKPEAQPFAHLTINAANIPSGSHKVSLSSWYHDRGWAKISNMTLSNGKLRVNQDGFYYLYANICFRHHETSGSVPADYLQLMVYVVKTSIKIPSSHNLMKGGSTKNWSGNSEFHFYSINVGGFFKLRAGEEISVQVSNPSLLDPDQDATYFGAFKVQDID
Protocol: (§1) ITC titrations were performed on the MicroCal iTC200 system at 25 °C[55]. Working stocks of compound S3-15 were prepared in 100% DMSO at 50 mM and then diluted to 500 μM at PBS with final DMSO concentration at 0.8% (v/v). PBS with 0.8% DMSO was used as ITC buffer. Purified sRANKL or L-RANKL protein was buffer exchanged into same ITC buffer using a Millipore spin column. S3-15 at 500 μM was loaded into a syringe and protein was loaded into an isothermal calorimeter cell. During titration, S3-15 in the […] was injected (2 μL per injection, 25 injections in total, and 180 s between each injection) regularly from a rotating syringe into protein solution in the isothermal calorimeter cell. The sample cell was stirred at 385 rpm. Reference cell power was set to 5 μcal/s. Control experiments were conducted under the same conditions using buffer solution instead of S3-15. Data were analyzed using a one-site binding model in Origin 7.1 software for ITC version 7.0 (MicroCal). The dissociation constant, KD, was calculated according to equation KD = 1/K. All other parameters, K ([…]), N (varying the stoichiometry), ΔH (enthalpy of the reaction), and ΔG ([…] of the reaction) were determined from the titration data.

[4] = test system: OVX mice; experiment: Osteoporosis therapeutic study in OVX mice (micro-CT); format: in vivo, mouse; conditions: S3-15 10 mg/kg/day 4 weeks, individual animals
Protocol: Female SD rats or C57BL/6 mice were cared until they grown up to 6 months old or 10 weeks old, respectively. Then we subjected them to either bilateral ovariectomy or sham operation after anesthesia with 10% chloral hydrate (0.3 mL/100 g). Then all the rats or mice were intramuscular injected of penicillin to prevent infection in the first week of surgery. For rat experiments, after 12 weeks of operation, 3 rats from sham-operated or ovariectomized groups were random selected to determine bone mass by micro-CT imaging biopsy to verify successful produced bone loss(data unshown). Then the OVX rats were individually administrated with S3-15, S3, and S3-05 orally with (10 mg/kg/day) for another 12 weeks. For mouse experiments, after 4 weeks of surgery, the OVX mice were treated with 10 mg/kg/day S3-15 for another 4 weeks.
(§2) The weight of rats or mice were recorded every week in the treatment period. After treatment, the rats were harvested, the serum, heart, liver, spleen, lung, kidney, thymus, and femurs were all collected and subjected to subsequent analysis. The right femurs of rats or mice were cleaned excess soft tissue, fixed in 10% formalin, and processed them for microcomputed tomography (micro-CT) analysis. Left mice femurs were collected and excarnate for biomechanical strength testing. Mice peripheral blood were as well as collected for flow cytometry analyzing.
The right femurs of rats or mice were further analyzed with micro-CT on Inveon PET/CT (Siemens, Germany). We used micro-CT to scan the femur from the femoral head to the femoral condyle, using 19 μm resolution, 80 kV 500uA, 360 projection, 3000-6000 image threshold, full rotation cone beam. Three-dimensional reconstruction and histomorphometric analyses of trabecular bone were conducted with the IAW (Inveon analysis workstation) analysis software. […] Trabecular bone parameters were measured including bone volume/tissue volume (BV/TV), bone surface area/bone volume (BS/BV), trabecular number (Tb.N), trabecular thickness (Tb.Th), trabecular separation(Tb.Sp) and trabecular pattern factor(Tb.P.F).

[5] = test system: OVX mice; experiment: Three-point bending test of femur (biomechanical strength); format: in vivo, mouse; conditions: OVX mice + S3-15, individual animals
Protocol: as §2

[6] = molecular target: T3, binary-RANKL (L-RANKL, mRANKL mimic) (Rattus norvegicus, UniProt Q9ESE2, D175N); experiment: Isothermal titration calorimetry (ITC) with binary-RANKL; format: binding; conditions: 25 °C, PBS 0.8% DMSO; read-out: ITC KD with binary-RANKL (printed +mRANKL in Fig. 3a)
T3 construct: (3) mRANKL (sRANKL-GSGS-sRANKL, rat 159-318 aa); His6-sumo (N); made in house; host or cells: Escherichia coli BL21 (DE3)
Protocol: as §1

T3 sequence (Q9ESE2 with tags, fused parts or gaps D175N): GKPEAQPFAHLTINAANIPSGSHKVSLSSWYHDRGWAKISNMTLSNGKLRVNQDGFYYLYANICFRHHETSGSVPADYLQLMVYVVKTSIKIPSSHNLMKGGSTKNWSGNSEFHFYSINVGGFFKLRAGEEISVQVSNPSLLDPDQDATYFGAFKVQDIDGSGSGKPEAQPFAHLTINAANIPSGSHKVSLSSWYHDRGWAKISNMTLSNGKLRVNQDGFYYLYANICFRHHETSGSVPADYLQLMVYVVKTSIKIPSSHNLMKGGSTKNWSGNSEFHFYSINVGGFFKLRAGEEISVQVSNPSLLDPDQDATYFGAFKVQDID

| Structure (SMILES) | plasma concentration-time (fig. S2c) ([1]; time 28 h) | plasma concentration-time (fig. S2c) ([1]; time 36 h) | effect on trimerization of sRANKL [2] | Kd [3] | BV/TV [4] | Tb.N [4] | Tb.Th [4] | Femur ultimate load [5] | SI (sRANKL over binary-RANKL) ([3]; ratio of ITC KD) | Kd [6] |
| --- | --- | --- | --- | --- | --- | --- | --- | --- | --- | --- |
| CCOC(=O)c1sc(NC(=O)/C(=N/Nc2ccccc2C(=O)O)C(C)=O)nc1C [S3, (E)-2-(2-(1-((5-(ethoxycarbonyl)-4-methylthiazol-2-yl)amino)-1,3-dioxobutan-2-ylidene) hydrazinyl) benzoic acid] | 0.7405 and 0.07032 and 0.1222 | 0.6382 and 0.07762 and 0.02166 | cannot affect | – | – | – | – | – | – | – |
| CCOC(=O)c1sc(NC(=O)/C(=N/Nc2ccc(O)cc2C(=O)O)C(C)=O)nc1C [S3-05] | 0.0028 and 0.0125 and 0.0083 | 0.0011 and 0.0231 and 0.0066 | – | 6.58 µM | – | – | – | – | – | – |
| CC(=O)/C(=N\Nc1ccccc1C(=O)O)C(=O)Nc1ccccn1 [S3-15] | – | – | cannot affect the trimerization of sRANKL | 5.78 µM | 0.134 and 0.2459 and 0.2549 and 0.1314 and 0.1319 and 0.1667 and 0.09144 and 0.215 | 3.01 1/mm and 5.848 1/mm and 5.596 1/mm and 2.742 1/mm and 2.832 1/mm and 3.86 1/mm and 1.833 1/mm and 4.649 1/mm | 0.0445 mm and 0.04205 mm and 0.04556 mm and 0.04792 mm and 0.04659 mm and 0.04318 mm and 0.04987 mm and 0.04624 mm | 16.2764 N and 16.6572 N and 19.3534 N and 19.5584 N and 18.4846 N and 18.452 N and 16.2074 N and 13.318 N | 21 | 124 µM |
